The record followed here is US20250382305A1 (PTC THERAPEUTICS, INC., priority 2022, published 2025).

Test [1] deals with Total ATXN3 (tATXN3) protein. The test can be described thus: Endogenous Total ATXN3 (tATXN3) Protein Assay (MSD immunoassay of cell lysates). Type of test: cell-based. The note with it: average IC50, total ATXN3 protein in cell lysate after 48 h with compound (Table 1). A digest of the protocol:
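Cells in DMEM/10% FBS were plated at 10,000 per well onto 7-point, 3.16-fold compound dilutions in duplicate for 48 h at 37° C, then lysed. Total ATXN3 in lysates was measured by MSD sandwich immunoassay: mouse anti-ATXN3 capture, rabbit anti-ATXN3 detection, SULFO-TAG anti-rabbit. Average IC50 was reported in star bins.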

The next test relates to ATXN3 pre-mRNA. The test can be described thus: RT-qPCR Assay to Quantify Exon 4 Skipping in ATXN3 pre-mRNA in Cells. Type of test: cell-based. The note with it: percent exon 4 skipping in ATXN3 pre-mRNA, RT-qPCR of cell lysates; average IC50. In a few lines:
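Cells plated at 10,000/well onto a 7-point, 3.16-fold DMSO dilution series (duplicates), incubated 24 h at 37 °C, then lysed. Exon 4 skipping measured by one-step RT-qPCR (48 °C RT, 40 cycles); IC50 interpolated from dose-response fit of percent skipping.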
In general terms: In qPCR the cycle at which signal appears reflects the starting amount.

In general, IC50 refers to the midpoint of a concentration-inhibition curve. Consider `N[C@H]1CC=CC[C@@H]1c1sc2c(NCc3ccccc3)cc(Cl)nc2c1I` [Compound 190, 2-((1S,6S)-6-aminocyclohex-3-en-1-yl)-N-benzyl-5-chloro-3-iodothieno[3,2-b]pyridin-7-amine], for which the IC50 (in test [1]; with ATXN3 pre-mRNA) was at most 30 nM throughout.

For the compound `N[C@H]1CC=CC[C@@H]1c1sc2c(NCc3cccs3)nc(Cl)nc2c1Br` [Compound 191, 6-((1S,6S)-6-aminocyclohex-3-en-1-yl)-7-bromo-2-chloro-N-(thiophen-2-ylmethyl)thieno[3,2-d]pyrimidin-4-amine], the IC50 (in test [1]; in the test on ATXN3 pre-mRNA) was at most 30 nM in each case.

For `Cc1c([C@H]2CC=CC[C@@H]2N)sc2c(NCc3ccco3)nc(Cl)nc12` [Compound 193, 6-((1S,6S)-6-aminocyclohex-3-en-1-yl)-2-chloro-N-(furan-2-ylmethyl)-7-methylthieno[3,2-d]pyrimidin-4-amine], the IC50 (in test [1]; in the test on ATXN3 pre-mRNA) was at most 30 nM throughout.

Consider `N[C@H]1CC=CC[C@@H]1c1sc2c(NCc3ccccc3)cc(Cl)nc2c1Br` [Compound 194, 2-((1S,6S)-6-aminocyclohex-3-en-1-yl)-N-benzyl-3-bromo-5-chlorothieno[3,2-b]pyridin-7-amine], for which the IC50 (in test [1]; with ATXN3 pre-mRNA) was at most 30 nM throughout.

Consider `N[C@H]1CC=CC[C@@H]1c1sc2c(NCc3cccs3)cc(Cl)nc2c1Cl` [Compound 196, 2-((1S,6S)-6-aminocyclohex-3-en-1-yl)-3,5-dichloro-N-(thiophen-2-ylmethyl)thieno[3,2-b]pyridin-7-amine], for which the 50% inhibitory concentration (IC50) (in test [1]; in the test with ATXN3 pre-mRNA) was at most 30 nM each time.

With `N[C@H]1CCCC[C@@H]1c1sc2c(NCc3ccncc3)cc(Cl)nc2c1Br` [Compound 197, 2-((1S,2S)-2-aminocyclohexyl)-3-bromo-5-chloro-N-(pyridin-4-ylmethyl)thieno[3,2-b]pyridin-7-amine], the 50% inhibitory concentration (IC50) (in test [1]; with ATXN3 pre-mRNA) was at most 30 nM in each case.

For `N[C@H]1CC=CC[C@@H]1c1sc2c(NCc3ccncc3)cc(Cl)nc2c1Br` [Compound 198, 2-((1S,6S)-6-aminocyclohex-3-en-1-yl)-3-bromo-5-chloro-N-(pyridin-4-ylmethyl)thieno[3,2-b]pyridin-7-amine], the half-inhibitory concentration (IC50) (in test [1]; with ATXN3 pre-mRNA) was at most 30 nM throughout.

On to `N[C@H]1CC=CC[C@@H]1c1sc2c(NCc3ncco3)cc(Cl)nc2c1Cl` [Compound 199, 2-((1S,6S)-6-aminocyclohex-3-en-1-yl)-3,5-dichloro-N-(oxazol-2-ylmethyl)thieno[3,2-b]pyridin-7-amine], for which the IC50 (in test [1]; in the test on ATXN3 pre-mRNA) was at most 30 nM each time.

As to `N[C@H]1CCCC(F)(F)[C@@H]1c1sc2c(NCc3ccco3)nc(Cl)nc2c1Br` [Compound 201, 6-((1R,6S)-6-amino-2,2-difluorocyclohexyl)-7-bromo-2-chloro-N-(furan-2-ylmethyl)thieno[3,2-d]pyrimidin-4-amine], the half-maximal inhibitory concentration (IC50) (in test [1]; with ATXN3 pre-mRNA) was at most 30 nM each time.

With `CC#CCNc1cc(Cl)nc2c(I)c([C@H]3CC=CC[C@@H]3N)sc12` [Compound 202, 2-((1S,6S)-6-aminocyclohex-3-en-1-yl)-N-(but-2-yn-1-yl)-5-chloro-3-iodothieno[3,2-b]pyridin-7-amine], the IC50 (in test [1]; in the test on ATXN3 pre-mRNA) was at most 30 nM each time.

As for `N[C@H]1CC=CC[C@@H]1c1sc2c(NCc3ccncc3)cc(Cl)nc2c1Cl` [Compound 203, 2-((1S,6S)-6-aminocyclohex-3-en-1-yl)-3,5-dichloro-N-(pyridin-4-ylmethyl)thieno[3,2-b]pyridin-7-amine], the IC50 (in test [1]; in the test with ATXN3 pre-mRNA) was at most 30 nM in each case.

Regarding `[2H]C1=C([2H])C([2H])([2H])[C@H](c2sc3c(NCc4cccs4)cc(Cl)nc3c2C)[C@@H](N)C1([2H])[2H]` [Compound 205, 2-((1S,6S)-6-aminocyclohex-3-en-1-yl-2,2,3,4,5,5-d6)-5-chloro-3-methyl-N-(thiophen-2-ylmethyl)thieno[3,2-b]pyridin-7-amine], the IC50 (in test [1]; in the test on ATXN3 pre-mRNA) was at most 30 nM throughout.

For the compound `N[C@H]1CC=CC[C@@H]1c1sc2c(NCc3ccco3)cc(Cl)nc2c1Br` [Compound 206, 2-((1S,6S)-6-aminocyclohex-3-en-1-yl)-3-bromo-5-chloro-N-(furan-2-ylmethyl)thieno[3,2-b]pyridin-7-amine], the 50% inhibitory concentration (IC50) (in test [1]; in the test with ATXN3 pre-mRNA) was at most 30 nM each time.

As to `N[C@H]1CC=CC[C@@H]1c1sc2c(NCc3ccccc3)cc(Cl)nc2c1Cl` [Compound 207, 2-((1S,6S)-6-aminocyclohex-3-en-1-yl)-N-benzyl-3,5-dichlorothieno[3,2-b]pyridin-7-amine], the concentration for half-maximal inhibition (IC50) (in test [1]; in the test on ATXN3 pre-mRNA) was at most 30 nM each time.

As to `C#Cc1c([C@H]2CCCC[C@@H]2N)sc2c(NCc3ccccc3)cc(Cl)nc12` [Compound 210, 2-((1S,2S)-2-aminocyclohexyl)-N-benzyl-5-chloro-3-ethynylthieno[3,2-b]pyridin-7-amine], the IC50 (in test [1]; with ATXN3 pre-mRNA) was at most 30 nM in each case.

For the compound `N[C@H]1CC=CC[C@@H]1c1sc2c(NCc3cccs3)cc(Cl)nc2c1C#CC[C@@H](O)CO` [Compound 211, (R)-5-(2-((1S,6S)-6-aminocyclohex-3-en-1-yl)-5-chloro-7-((thiophen-2-ylmethyl)amino)thieno[3,2-b]pyridin-3-yl)pent-4-yne-1,2-diol], the IC50 (in test [1]; in the test with ATXN3 pre-mRNA) was at most 30 nM each time.

For `[2H]C1=C([2H])C([2H])([2H])[C@H](c2sc3c(NCc4ccco4)cc(Cl)nc3c2C)[C@@H](N)C1([2H])[2H]` [Compound 212, 2-((1S,6S)-6-aminocyclohex-3-en-1-yl-2,2,3,4,5,5-d6)-5-chloro-N-(furan-2-ylmethyl)-3-methylthieno[3,2-b]pyridin-7-amine], the IC50 (in test [1]; in the test with ATXN3 pre-mRNA) was at most 30 nM in each case.

As to `N[C@H]1CC=CC[C@@H]1c1sc2c(NCc3ccncc3)nc(Cl)nc2c1Cl` [Compound 214, 6-((1S,6S)-6-aminocyclohex-3-en-1-yl)-2,7-dichloro-N-(pyridin-4-ylmethyl)thieno[3,2-d]pyrimidin-4-amine], the IC50 (in test [1]; in the test on ATXN3 pre-mRNA) was at most 30 nM in each case.

As to `N[C@H]1CC=CC[C@@H]1c1sc2c(NCc3cccs3)cc(Cl)nc2c1C#CC[C@H](O)CO` [Compound 216, (S)-5-(2-((1S,6S)-6-aminocyclohex-3-en-1-yl)-5-chloro-7-((thiophen-2-ylmethyl)amino)thieno[3,2-b]pyridin-3-yl)pent-4-yne-1,2-diol], the IC50 (in test [1]; in the test on ATXN3 pre-mRNA) was at most 30 nM each time.

On to `N[C@H]1CC=CC[C@@H]1c1sc2c(NCc3ccsc3)cc(Cl)nc2c1Br` [Compound 217, 2-((1S,6S)-6-aminocyclohex-3-en-1-yl)-3-bromo-5-chloro-N-(thiophen-3-ylmethyl)thieno[3,2-b]pyridin-7-amine], for which the IC50 (in test [1]; in the test with ATXN3 pre-mRNA) was at most 30 nM in each case.

As for `N[C@H]1CCOC[C@@H]1c1sc2c(NCc3ccccc3)cc(Cl)nc2c1Cl` [Compound 218, 2-((3R,4S)-4-aminotetrahydro-2H-pyran-3-yl)-N-benzyl-3,5-dichlorothieno[3,2-b]pyridin-7-amine], the IC50 (in test [1]; in the test with ATXN3 pre-mRNA) was at most 30 nM each time.
